For assay [1], the system named is PKB Ser473 phosphorylation in Rat1-myr-HA-p110 delta cells. The assay can be described thus: Reverse protein array assay, PKB Ser473 phosphorylation in Rat1-myr-p110 delta cells. The assay is classed as cell-based. To be noted: read-out: p-PKB IC50. The method in brief: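 After at least 20 h of culture, the p110 isoform-transfected Rat1 lines receive compound in an 8-step dilution series, keeping DMSO at 0.2%, for 30 minutes. Cells are then lysed and lysates arrayed on chips for fluorescence detection of Ser473-phosphorylated PKB.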

For assay [2], the target named is T1, PI3K delta (Homo sapiens, UniProt O00329).
T1 construct: for the full-length p110-d subunit are generated and fused by overlapping PCR; p85(iSH2) fusion partner (see partner chain) (N); His tag (C); made in house; host or cells: baculovirus; Tn5 (Trichoplusia ni) or TiniPro insect cells
T1 sequence (O00329 with tags, fused parts or gaps limits assumed): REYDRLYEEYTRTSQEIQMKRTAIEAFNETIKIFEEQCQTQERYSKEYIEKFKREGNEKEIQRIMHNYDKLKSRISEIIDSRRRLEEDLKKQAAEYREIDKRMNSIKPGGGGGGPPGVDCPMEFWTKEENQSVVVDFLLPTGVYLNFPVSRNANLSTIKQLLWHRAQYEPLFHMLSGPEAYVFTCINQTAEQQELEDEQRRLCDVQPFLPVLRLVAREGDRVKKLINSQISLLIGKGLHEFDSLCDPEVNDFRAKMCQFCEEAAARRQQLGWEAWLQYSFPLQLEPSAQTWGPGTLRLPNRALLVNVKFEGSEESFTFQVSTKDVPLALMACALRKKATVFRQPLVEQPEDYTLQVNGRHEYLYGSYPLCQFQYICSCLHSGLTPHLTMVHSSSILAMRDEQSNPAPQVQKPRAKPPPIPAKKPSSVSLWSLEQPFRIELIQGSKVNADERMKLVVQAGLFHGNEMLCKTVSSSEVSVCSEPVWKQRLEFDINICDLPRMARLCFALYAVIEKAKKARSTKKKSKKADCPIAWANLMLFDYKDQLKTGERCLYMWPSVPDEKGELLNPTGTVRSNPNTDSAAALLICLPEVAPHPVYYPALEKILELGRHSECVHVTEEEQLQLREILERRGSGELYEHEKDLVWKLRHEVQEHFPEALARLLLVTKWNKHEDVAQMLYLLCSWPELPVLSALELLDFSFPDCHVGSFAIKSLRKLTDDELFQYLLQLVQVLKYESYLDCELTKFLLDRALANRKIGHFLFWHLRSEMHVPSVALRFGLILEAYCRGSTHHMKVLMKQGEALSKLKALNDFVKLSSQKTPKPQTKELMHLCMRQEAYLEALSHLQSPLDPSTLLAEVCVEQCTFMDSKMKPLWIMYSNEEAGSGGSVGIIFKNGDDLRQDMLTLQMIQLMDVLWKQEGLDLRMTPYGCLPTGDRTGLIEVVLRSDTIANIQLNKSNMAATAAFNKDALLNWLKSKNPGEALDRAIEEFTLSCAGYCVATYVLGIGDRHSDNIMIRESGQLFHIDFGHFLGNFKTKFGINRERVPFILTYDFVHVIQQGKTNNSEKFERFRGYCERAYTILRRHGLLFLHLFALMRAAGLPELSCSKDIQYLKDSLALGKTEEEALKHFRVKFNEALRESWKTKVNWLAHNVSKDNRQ
Briefly: PI3K delta kinase assay (Kinase-Glo luminescence). It counts as biochemical. The method, boiled down: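 Lipid kinase activity of a His-tagged p110δ full-length/p85 iSH2 fusion (10 nM) toward bovine liver phosphatidylinositol (10 μg/mL) at 1 μM ATP, pH 7.5, 60 min, room temperature. ATP consumption is quantified by luciferase-based luminescence. Four-parameter logistic fitting gives IC50.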
(In general: Kinase-Glo measures the ATP left after a reaction by luminescence.)

The target of assay [3] is T2, PI3K alpha (Homo sapiens, UniProt P42336).
T2 construct: p85(iSH2) fusion partner (see partner chain) (N); His tag (C); made in house; host or cells: baculovirus; Tn5 (Trichoplusia ni) or TiniPro insect cells
T2 sequence (P42336 with tags, fused parts or gaps limits assumed): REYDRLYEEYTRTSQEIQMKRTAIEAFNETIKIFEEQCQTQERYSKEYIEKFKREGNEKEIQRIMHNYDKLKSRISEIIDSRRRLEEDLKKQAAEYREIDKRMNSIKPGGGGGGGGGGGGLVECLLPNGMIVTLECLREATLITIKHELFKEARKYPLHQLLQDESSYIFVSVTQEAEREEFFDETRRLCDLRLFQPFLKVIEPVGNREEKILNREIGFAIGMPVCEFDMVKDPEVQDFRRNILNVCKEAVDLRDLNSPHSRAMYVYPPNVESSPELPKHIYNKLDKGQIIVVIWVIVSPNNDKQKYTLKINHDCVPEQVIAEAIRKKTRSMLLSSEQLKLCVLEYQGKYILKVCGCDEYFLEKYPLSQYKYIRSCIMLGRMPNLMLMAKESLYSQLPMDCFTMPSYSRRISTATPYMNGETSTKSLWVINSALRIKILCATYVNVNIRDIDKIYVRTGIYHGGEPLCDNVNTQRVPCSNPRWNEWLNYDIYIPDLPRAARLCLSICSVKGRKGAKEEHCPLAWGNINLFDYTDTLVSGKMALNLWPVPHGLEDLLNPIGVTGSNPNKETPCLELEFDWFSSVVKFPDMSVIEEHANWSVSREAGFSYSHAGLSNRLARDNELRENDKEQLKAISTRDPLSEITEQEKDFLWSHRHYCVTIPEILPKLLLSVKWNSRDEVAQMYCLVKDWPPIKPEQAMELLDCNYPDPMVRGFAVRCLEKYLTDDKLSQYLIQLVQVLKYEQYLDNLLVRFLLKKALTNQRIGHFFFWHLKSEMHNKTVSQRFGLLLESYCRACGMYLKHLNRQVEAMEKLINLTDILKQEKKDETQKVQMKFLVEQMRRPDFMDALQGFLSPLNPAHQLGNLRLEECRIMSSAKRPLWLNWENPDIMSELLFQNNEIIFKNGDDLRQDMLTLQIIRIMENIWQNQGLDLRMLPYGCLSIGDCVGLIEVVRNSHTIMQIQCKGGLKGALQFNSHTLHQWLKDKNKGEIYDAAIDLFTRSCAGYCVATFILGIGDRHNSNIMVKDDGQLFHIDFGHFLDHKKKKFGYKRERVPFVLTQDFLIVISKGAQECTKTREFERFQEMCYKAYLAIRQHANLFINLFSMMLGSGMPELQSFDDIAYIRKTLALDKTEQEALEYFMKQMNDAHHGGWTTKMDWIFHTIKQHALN
Briefly: PI3K alpha kinase assay (Kinase-Glo luminescence). It counts as biochemical. The method in brief: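 Enzyme 10 nM PI3Kα EMV B1075; ATP 1 μM; PI 10 μg/mL; Tris-HCl pH 7.5 10 mM, MgCl2 3 mM, NaCl 50 mM, CHAPS 0.05%, DTT 1 mM; 60 min RT; Kinase-Glo luminescence; 4-parameter IC50 fit, 8 concentrations, single points.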

Where only a bound is given, the exact number is not on record here.

As usually defined, the IC50 is the point on the concentration scale where inhibition reaches its midpoint. Turning to `CN(C)c1ccc(-c2ccc3ncc4c(c3c2)n(-c2cn(C)nc2Cl)c(=O)n4C)cn1` [Example 4.9, 1-(3-Chloro-1-methyl-1H-pyrazol-4-yl)-8-(6-dimethylamino-pyridin-3-yl)-3-methyl-1,3-dihydro-imidazo[4,5-c]quinolin-2-one], the IC50 in assay [1] came to 8 nM; in assay [2], 12 nM; in assay [3] it was 9 nM.
For `CN(C)c1ncc(-c2ccc3ncc4c(c3c2)n(-c2cn(C)nc2Cl)c(=O)n4C)cn1` [Example 6.3, 1-(3-Chloro-1-methyl-1H-pyrazol-4-yl)-8-(2-dimethylamino-pyrimidin-5-yl)-3-methyl-1,3-dihydro-imidazo[4,5-c]quinolin-2-one], the IC50 worked out at 24 nM in assay [1], 7 nM in assay [2] and 8 nM in assay [3].
Consider `Cc1nn(C)cc1-n1c(=O)n(C)c2cnc3ccc(-c4cnc(N)c(C(F)(F)F)c4)cc3c21` [Example 25.1, 8-(6-Amino-5-trifluoromethyl-pyridin-3-yl)-1-(1,3-dimethyl-1H-pyrazol-4-yl)-3-methyl-1,3-dihydro-imidazo[4,5-c]quinolin-2-one], for which the IC50 in assay [1] was determined as 9 nM; in assay [2] it was 13 nM; in assay [3], 14 nM.
For the molecule `Cc1cc(-n2c(=O)n(C)c3cnc4ccc(-c5cnc(N)c(C(F)(F)F)c5)cc4c32)n(C)n1` [Example 25.6, 8-(6-Amino-5-trifluoromethyl-pyridin-3-yl)-1-(2,5-dimethyl-2H-pyrazol-3-yl)-3-methyl-1,3-dihydro-imidazo[4,5-c]quinolin-2-one], the values for the IC50 in assay [1], in assay [2] and in assay [3] were 32 nM, 32 nM and 41 nM, respectively.
With `CNS(=O)(=O)c1cccc(-c2ccc3ncc4c(c3c2)n(-c2cn(C)nc2C)c(=O)n4C)c1` [Example 39, 3-[1-(1,3-Dimethyl-1H-pyrazol-4-yl)-3-methyl-2-oxo-2,3-dihydro-1H-imidazo[4,5-c]quinolin-8-yl]-N-methyl-benzenesulfonamide], the IC50 in assay [1] was 84 nM; in assay [2], 3 nM; in assay [3], below 3 nM.
The matching figures for `Cc1nn(C)cc1-n1c(=O)n(C)c2cnc3ccc(-c4cccc(NS(C)(=O)=O)c4)cc3c21` [Example 47, N-{3-[1-(1,3-dimethyl-1H-pyrazol-4-yl)-3-methyl-2-oxo-2,3-dihydro-1H-imidazo[4,5-c]quinolin-8-yl]-phenyl}-methanesulfonamide]: 839 nM, 178 nM and 73 nM.
`CC(C)Oc1cncc(-c2ccc3ncc4c(c3c2)n(-c2cn(C)nc2Cl)c(=O)n4C)c1` [Example 58.2, 1-(3-Chloro-1-methyl-1H-pyrazol-4-yl)-8-(5-isopropoxy-pyridin-3-yl)-3-methyl-1,3-dihydro-imidazo[4,5-c]quinolin-2-one]: the IC50 in assay [1] was 12 nM; in assay [2] it was 4 nM; in assay [3], 6 nM.
In the case of `Cc1nn(C)cc1-n1c(=O)n(C)c2cnc3ccc(-c4cncc(OC5CCC5)c4)cc3c21` [Example 60.1, 8-(5-Cyclobutoxy-pyridin-3-yl)-1-(1,3-dimethyl-1H-pyrazol-4-yl)-3-methyl-1,3-dihydro-imidazo[4,5-c]quinolin-2-one], the IC50 in assay [1] is 33 nM; in assay [2], below 3 nM; in assay [3] it was below 3 nM.
With `Cc1nn(C)cc1-n1c(=O)n(C)c2cnc3ccc(-c4ccc(-c5ncc[nH]5)cc4)cc3c21` [Example 77, 1-(1,3-Dimethyl-1H-pyrazol-4-yl)-8-[4-(1H-imidazol-2-yl)-phenyl]-3-methyl-1,3-dihydro-imidazo[4,5-c]quinolin-2-one], the IC50 in assay [1] is 22 nM; in assay [2] it was 8 nM; in assay [3], 5 nM.
The matching figures for `Cc1nn(C)cc1-n1c(=O)n(C)c2cnc3ccc(-c4cccc(OC(C)C)c4)cc3c21` [Example 82, 1-(1,3-Dimethyl-1H-pyrazol-4-yl)-8-(3-isopropoxy-phenyl)-3-methyl-1,3-dihydro-imidazo[4,5-c]quinolin-2-one]: 314 nM, 77 nM and 39 nM.

Values taken from patent publication US20140005163A1 (NOVARTIS AG, priority 2010, published 2014).
